Assay results: US20200323991A1, “PBD CONJUGATES FOR TREATING DISEASES” (ENDOCYTE, INC., priority 2016, published 2020)

Experiments:
[1] = target: T1, folate receptor (Homo sapiens, UniProt P15328); assay: Relative affinity assay (displacement of [3H]FA bound to FR on KB cells); assay type: binding; conditions: 100 nmol/L [3H]FA, 1 h at 37° C.
T1 construct: endogenous in cells; host or cells: KB cells
Protocol: FR-positive KB cells were seeded in 24-well Falcon plates and allowed to form adherent monolayers (>90% confluent) overnight in FFRPMI/HIFCS. Spent incubation medium was replaced with FFRPMI supplemented with 10% HIFCS and containing 100 nmol/L of [^3H]FA in the absence and presence of increasing concentrations of unlabeled FA or the test conjugate. Cells were incubated for 1 h at 37° C. and then rinsed thrice with 0.5 mL PBS. Five hundred microliters of 1% SDS in PBS were added to each well; after 5 min, cell lysates were collected, transferred to individual vials containing 5 mL of scintillation cocktail, and then counted for radioactivity.
Cells exposed to only the [3H]FA in FFRPMI (no competitor) were designated as negative controls, whereas cells exposed to the [3H]FA plus 1 mmol/L unlabeled FA served as positive controls. Disintegrations per minute (DPM) measured in the latter samples (representing nonspecific binding of label) were subtracted from the DPM values from all samples.

[2] = test system: KB tumor; assay: Antitumor activity in large KB tumor model; assay type: in vivo, mice; conditions: 0.5 μmol/kg, once a week for two weeks
Protocol: Female Balb/c nu/nu mice were fed ad libitum with folate-deficient chow (Harlan diet #TD01013) for the duration of the experiment. KB tumor cells were inoculated subcutaneously at the right flank of each mouse. Mice were dosed after the tumors reached an average of 100 and 180 mm^3 through the lateral tail vein under sterile conditions in a volume of […] of phosphate-buffered saline (PBS).
(§1) Growth of each s.c. tumor was followed by measuring the tumor two times per week. Tumors were measured in two perpendicular directions using Vernier calipers, and their volumes were calculated as 0.5×L×W^2, where L=measurement of longest axis in mm and W=measurement of axis perpendicular to L in mm.

[3] = test system: Calf thymus DNA (CT-DNA); assay: DNA crosslinking assay (ethidium bromide fluorescence); assay type: biochemical
Protocol: (§2) Calf thymus DNA (CT-DNA) was combined with increasing concentrations of Conjugate 1 (0.14 to 33.3 pM) or Conjugate 1+/− DTT. CT-DNA+Melphalan was used as a positive control and CT-DNA+DMSO was used as a negative control. These solutions were incubated at 37° C. for 2 hours. The solutions were then mixed with ethidium bromide and incubated for 2 hours at room temperature. Fluorescence (Ex: 535 nm, Em: 605 nm) from these samples was measured on the Fluoroskan II fluorimeter. Next, the samples were heated to 104° C. for 5 minutes, cooled on ice for 5 minutes, kept at RT for 15 minutes and fluorescence measured. % crosslinking of each sample was calculated using the fluorescence values from the positive and negative controls.
as §2, with “5 (1.1” for “1 (0.14”, “75” for “33.3”, “5+/−” for “1+/−”, “DTT.” for “DTT. CT-DNA+Melphalan was used as a positive control and CT-DNA+DMSO was used as a negative control.”

[4] = test system: MDA-MB231 cells; assay: 3H-thymidine incorporation in MDA-MB231 cells; assay type: cell-based, human; conditions: MDA-MB-231 cells, 100 μM folic acid
Protocol: MDA-MB231 (human breast cancer) cells were seeded in 12-well Falcon plates and allowed to form nearly confluent monolayers overnight in FFRPMI/HIFCS. Designated wells received medium containing 100μM folic acid (nontoxic FR blocker) and were used to determine the targeting specificity. Each well then received increasing concentrations of Conjugate 1 (n=4). Cells were pulsed for 2 h at 37° C., rinsed with medium, and then chased in fresh medium up to 72 h. Spent medium was aspirated and replaced with medium containing [3H]thymidine. Following a 2 h incubation, cells were washed with PBS and then treated with 5% trichloroacetic acid. The trichloroacetic acid was aspirated and cells were solubilized in 0.25 N sodium hydroxide. Each solubilized sample were transferred to scintillation vials containing Ecolume scintillation cocktail and counted in a liquid scintillation counter. Final results were expressed as the percentage of [3H]thymidine incorporation relative to untreated controls and IC50 were values calculated using GraphPad Prism software.

[5] = test system: ST070 ovarian PDX tumors; assay: In vivo activity against ovarian tumors, ST070; parameters: species or system mice; conditions: 15.0 mg/kg SIW for two weeks
Protocol: (§3) Mice were maintained and tumor volumes were measures according to Method 3.
(§4) Primary human Ovarian model ST070 fragments (2-4 mm in diameter) were inoculated subcutaneously at the right flank of each mouse. Mice were randomized into experimental groups of 7 mice each and test articles were injected through the lateral tail vein under sterile conditions in a volume of 200 μL of phosphate-buffered saline (PBS).

[6] = test system: Endometrial PDX tumor (ST040); assay: In vivo activity against endometrial tumors, ST040; parameters: species or system mice; conditions: 15 mg/kg SIW for two weeks
Protocol: Female Balb/c nu/nu mice were fed ad libitum with folate-deficient chow (Harlan diet #TD01013) for the duration of the experiment. Primary human Endometrial model ST040 fragments (2-4 mm in diameter) were inoculated subcutaneously at the right flank of each mouse. Mice were randomized into experimental groups of 7 mice each and test articles were injected through the lateral tail vein under sterile conditions in a volume of 200 μL of phosphate-buffered saline (PBS). These studies were performed at South Texas Accelerated Research Therapeutics, 4383 Medical Drive, San Antonio, Tex. 78229.
as §1, with “week until a volume of 1200 mm^3 was reached.” for “week.”

[7] = test system: TNBC PDX tumor; assay: In vivo activity against triple negative breast tumors (FIG. 38); parameters: species or system mice; conditions: 1.0 μmol/kg SIW for two weeks
Protocol: as §3
as §4, with “TNBC” for “Ovarian”, “ST502 (2-4 mm in diameter) or primary human TNBC model ST738” for “ST070 fragments”

T1 sequence (P15328 25-234): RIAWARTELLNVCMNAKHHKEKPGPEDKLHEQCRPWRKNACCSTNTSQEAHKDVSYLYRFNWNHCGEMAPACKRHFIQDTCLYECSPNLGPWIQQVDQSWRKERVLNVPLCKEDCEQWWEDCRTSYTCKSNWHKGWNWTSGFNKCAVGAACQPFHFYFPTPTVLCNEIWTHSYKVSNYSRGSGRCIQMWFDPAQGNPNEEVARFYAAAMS

Molecule: C=C1C[C@H]2C=Nc3cc(OCCCCCOc4cc5c(cc4OC)C(=O)N4CC(=C)C[C@H]4[C@H](O)N5C(=O)OCC(C)SSC[C@H](NC(=O)[C@H](CC(=O)O)NC(=O)[C@H](CC(=O)O)NC(=O)[C@H](CCCNC(=N)N)NC(=O)[C@H](CC(=O)O)NC(=O)CC[C@H](NC(=O)c4ccc(NCc5cnc6nc(N)[nH]c(=O)c6n5)cc4)C(=O)O)C(=O)O)c(OC)cc3C(=O)N2C1 (some centres unmarked) [Conjugate 1]
- relative binding affinity toward the folate receptor, fold lower than that of folic acid [1]: ~4.2 fold
- cures [2]: 100%
- DNA crosslinking by reduced form ([3]; treated with DTT): crosslink with DNA
- DNA crosslinking by intact conjugate ([3]; without DTT): not able to crosslink DNA
- cytotoxic activity in the presence of an excess of free folate [4]: significant reduction in activity

Molecule: CC(=O)O[C@H]1C(=O)[C@@]2(C)[C@H]([C@H](OC(=O)c3ccccc3)[C@]3(O)C[C@H](OC(=O)[C@H](O)[C@@H](NC(=O)c4ccccc4)c4ccccc4)C(C)=C1C3(C)C)[C@]1(OC(C)=O)CO[C@@H]1C[C@@H]2O [paclitaxel]
- tumor size compared to untreated control [5]: did not have decreased tumor size
- partial response subjects [6]: 0%

Molecule: erubulin mesylate
- TNBC PDX tumor size compared to untreated control [7]: did not decrease TNBC PDX tumor size
